# Results from ChEMBL document CHEMBL3244272, “Folate antagonists. 15. 2,3-Diamino-6-(2-naphthylsulfonyl)quinazoline and related 2,4-diamino-6-[(phenyl and naphthyl)sulfinyl and sulfonyl]quinazolines, a potent new class of antimetabolites with phenomenal antimalarial activity” (J Med Chem, 1979).
# Active and inactive are the calls of the source. The calls are words filed in the database; no cut-off is given here.
# Tests used:
# [1] = test system: Plasmodium gallinaceum; experiment: Antimalarial activity against cycloguanil-resistant Plasmodium gallinaceum infected in mouse assessed as dose required to suppress parasitemia by 90% compound treated through gavage for 3 days; type: functional
# [2] = test system: Plasmodium gallinaceum; experiment: Antimalarial activity against cycloguanil-resistant Plasmodium gallinaceum infected in mouse assessed as dose required to suppress parasitemia by 90% compound treated through gavage for 3 days relative to parent strain; type: functional
# [3] = test system: Plasmodium falciparum; experiment: Antimalarial activity against chloroquine-sensitive, pyrimethamine-resistant Plasmodium falciparum Malayan Camp CH/Q infected in Aotus monkey assessed as dose required to >50% cures compound treated for 7 days; type: functional
# [4] = test system: Plasmodium falciparum; experiment: Antimalarial activity against chloroquine-resistant, pyrimethamine-sensitive Plasmodium falciparum Vietnam Oak Knoll in Aotus monkey assessed as dose required to >50% cures compound treated for 7 days; type: functional
# [5] = test system: Plasmodium falciparum; experiment: Antimalarial activity against Plasmodium falciparum Malayan Camp CH/Q infected in po once daily dosed Owl monkey assessed as curative dose compound treated for 7 days; type: functional
# [6] = test system: Plasmodium falciparum; experiment: Antimalarial activity against Plasmodium falciparum Vietnam Oak Knoll in po once daily dosed Owl monkey assessed as curative dose compound treated for 7 days; type: functional
# [7] = test system: Plasmodium falciparum; experiment: Antimalarial activity against Plasmodium falciparum Vietnam Smith in po once daily dosed Owl monkey assessed as curative dose compound treated for 7 days; type: functional
# [8] = test system: Plasmodium vivax; experiment: Antimalarial activity against Plasmodium vivax New Guinea Chesson in po once daily dosed Owl monkey assessed as curative dose compound treated for 7 days; type: functional
# [9] = test system: Plasmodium vivax; experiment: Antimalarial activity against Plasmodium vivax VietnamPalo Alto in po once daily dosed Owl monkey assessed as curative dose compound treated for 7 days; type: functional
# [10] = test system: Plasmodium falciparum; experiment: Antimalarial activity against Plasmodium falciparum Malayan Camp CH/Q infected in po dosed Owl monkey assessed as curative dose compound treated for 7 days in presence of 5 mg/kg sulfadiazine for 7 days; type: functional
# [11] = test system: Plasmodium falciparum; experiment: Antimalarial activity against Plasmodium falciparum Vietnam Oak Knoll in po dosed Owl monkey assessed as curative dose compound treated for 7 days in presence of 5 mg/kg sulfadiazine for 7 days; type: functional
# [12] = test system: Plasmodium falciparum; experiment: Antimalarial activity against Plasmodium falciparum Vietnam Smith in po dosed Owl monkey assessed as curative dose compound treated for 7 days in presence of 5 mg/kg sulfadiazine for 7 days; type: functional
# [13] = test system: Plasmodium vivax; experiment: Antimalarial activity against Plasmodium vivax VietnamPalo Alto in po dosed Owl monkey assessed as curative dose compound treated for 7 days in presence of 5 mg/kg sulfadiazine for 7 days; type: functional
# [14] = test system: Enterococcus faecalis; experiment: Antibacterial activity against Streptococcus faecalis MGH-2 assessed as growth inhibition; type: functional
# [15] = test system: Staphylococcus aureus; experiment: Antibacterial activity against Staphylococcus aureus UC-76 assessed as growth inhibition; type: functional
# [16] = test system: Staphylococcus aureus; experiment: Antibacterial activity against Staphylococcus aureus S18713 assessed as growth inhibition; type: functional
# [17] = test system: Pseudomonas aeruginosa; experiment: Antibacterial activity against Pseudomonas aeruginosa 28 assessed as growth inhibition; type: functional
# [18] = test system: Escherichia coli; experiment: Antibacterial activity against Escherichia coli Vogel assessed as growth inhibition; type: functional
# [19] = test system: Shigella sonnei; experiment: Antibacterial activity against Shigella sonnei C-10 assessed as growth inhibition; type: functional
# [20] = test system: Mycobacterium tuberculosis; experiment: Antibacterial activity against Mycobacterium tuberculosis H37Rv assessed as growth inhibition; type: functional
# [21] = test system: Enterococcus faecalis; experiment: Antibacterial activity against Streptococcus faecalis assessed as growth inhibition; type: functional, organism-based
# [22] = test system: Lacticaseibacillus casei; experiment: Antibacterial activity against Lactobacillus casei assessed as growth inhibition; type: functional, organism-based
# [23] = Antibacterial activity against Pediococcus cerevisiae assessed as growth inhibition; type: functional
# [24] = Inhibition of Plasmodium berghei dihydrofolate reductase
# [25] = test system: Plasmodium berghei; experiment: Antimalarial activity against trophozoite-induced Plasmodium berghei infected in sc dosed mouse assessed as minimum curative dose; type: functional
# [26] = test system: Plasmodium berghei; experiment: Antimalarial activity against trophozoite-induced Plasmodium berghei infected in mouse assessed as change in mean survival time at 5 mg/kg, sc single dose after 72 hrs of infection; type: functional; details: route subcutaneous
# [27] = test system: Plasmodium berghei; experiment: Antimalarial activity against trophozoite-induced Plasmodium berghei infected in mouse assessed as change in mean survival time at 2.5 mg/kg, sc single dose after 72 hrs of infection; type: functional; details: route subcutaneous
# [28] = test system: Plasmodium berghei; experiment: Antimalarial activity against trophozoite-induced Plasmodium berghei infected in mouse assessed as change in mean survival time at 1.25 mg/kg, sc single dose after 72 hrs of infection; type: functional; details: route subcutaneous
# [29] = test system: Plasmodium gallinaceum; experiment: Antimalarial activity against trophozoite-induced Plasmodium gallinaceum infected in chick assessed as mean survival time at 40 mg/kg, sc single dose (reference value: 4 days); type: functional; details: route subcutaneous
# [30] = test system: Plasmodium gallinaceum; experiment: Antimalarial activity against trophozoite-induced Plasmodium gallinaceum infected in chick assessed as mean survival time at 20 mg/kg, sc single dose (reference value: 4 days); type: functional; details: route subcutaneous
# [31] = test system: Plasmodium gallinaceum; experiment: Antimalarial activity against trophozoite-induced Plasmodium gallinaceum infected in chick assessed as mean survival time at 10 mg/kg, sc single dose (reference value: 4 days); type: functional; details: route subcutaneous
# [32] = test system: Plasmodium gallinaceum; experiment: Antimalarial activity against trophozoite-induced Plasmodium gallinaceum infected in chick assessed as mean survival time at 5 mg/kg, sc single dose (reference value: 4 days); type: functional; details: route subcutaneous
# [33] = test system: Plasmodium gallinaceum; experiment: Antimalarial activity against trophozoite-induced Plasmodium gallinaceum infected in chick assessed as mean survival time at 2.5 mg/kg, sc single dose (reference value: 4 days); type: functional; details: route subcutaneous
# [34] = test system: Plasmodium gallinaceum; experiment: Antimalarial activity against trophozoite-induced Plasmodium gallinaceum infected in chick assessed as mean survival time at 1.25 mg/kg, sc single dose (reference value: 4 days); type: functional; details: route subcutaneous
# [35] = test system: Plasmodium gallinaceum; experiment: Antimalarial activity against trophozoite-induced Plasmodium gallinaceum infected in chick assessed as cured at 5 mg/kg, sc single dose; type: functional, organism-based; design: dose 5 mg/kg
# [36] = test system: Plasmodium gallinaceum; experiment: Antimalarial activity against trophozoite-induced Plasmodium gallinaceum infected in chick assessed as cured at 2.5 mg/kg, sc single dose; type: functional, organism-based; design: dose 2.5 mg/kg
# [37] = test system: Plasmodium gallinaceum; experiment: Antimalarial activity against trophozoite-induced Plasmodium gallinaceum infected in chick assessed as cured at 1.25 mg/kg, sc single dose; type: functional, organism-based; design: dose 1.25 mg/kg
# [38] = test system: Plasmodium gallinaceum; experiment: Antimalarial activity against trophozoite-induced Plasmodium gallinaceum infected in chick assessed as cured at 40 mg/kg, sc single dose; type: functional, organism-based; design: dose 40 mg/kg
# [39] = test system: Plasmodium gallinaceum; experiment: Antimalarial activity against trophozoite-induced Plasmodium gallinaceum infected in chick assessed as cured at 20 mg/kg, sc single dose; type: functional, organism-based; design: dose 20 mg/kg
# [40] = test system: Plasmodium gallinaceum; experiment: Antimalarial activity against trophozoite-induced Plasmodium gallinaceum infected in chick assessed as cured at 10 mg/kg, sc single dose; type: functional, organism-based; design: dose 10 mg/kg
# [41] = test system: Gallus gallus; experiment: Toxicity in trophozoite-induced Plasmodium gallinaceum infected in chick assessed as death at 40 mg/kg, sc single dose measured within 48 hrs; type: organism-based; design: dose 40 mg/kg, route subcutaneous; details: chicken, in vivo
# [42] = test system: Gallus gallus; experiment: Toxicity in trophozoite-induced Plasmodium gallinaceum infected in chick assessed as death at 20 mg/kg, sc single dose measured within 48 hrs; type: organism-based; design: dose 20 mg/kg, route subcutaneous; details: chicken, in vivo
# [43] = test system: Gallus gallus; experiment: Toxicity in trophozoite-induced Plasmodium gallinaceum infected in chick assessed as death at 10 mg/kg, sc single dose measured within 48 hrs; type: organism-based; design: dose 10 mg/kg, route subcutaneous; details: chicken, in vivo
# [44] = test system: Gallus gallus; experiment: Toxicity in trophozoite-induced Plasmodium gallinaceum infected in chick assessed as death at 5 mg/kg, sc single dose measured within 48 hrs; type: organism-based; design: dose 5 mg/kg, route subcutaneous; details: chicken, in vivo
# [45] = test system: Gallus gallus; experiment: Toxicity in trophozoite-induced Plasmodium gallinaceum infected in chick assessed as death at 2.5 mg/kg, sc single dose measured within 48 hrs; type: organism-based; design: dose 2.5 mg/kg, route subcutaneous; details: chicken, in vivo
# [46] = test system: Gallus gallus; experiment: Toxicity in trophozoite-induced Plasmodium gallinaceum infected in chick assessed as death at 1.25 mg/kg, sc single dose measured within 48 hrs; type: organism-based; design: dose 1.25 mg/kg, route subcutaneous; details: chicken, in vivo
# [47] = test system: Plasmodium berghei; experiment: Antimalarial activity against trophozoite-induced Plasmodium berghei infected in mouse assessed as change in mean survival time at 40 mg/kg, sc single dose after 72 hrs of infection; type: functional; details: route subcutaneous
# [48] = test system: Plasmodium berghei; experiment: Antimalarial activity against trophozoite-induced Plasmodium berghei infected in mouse assessed as change in mean survival time at 20 mg/kg, sc single dose after 72 hrs of infection; type: functional; details: route subcutaneous
# [49] = test system: Plasmodium berghei; experiment: Antimalarial activity against trophozoite-induced Plasmodium berghei infected in mouse assessed as change in mean survival time at 10 mg/kg, sc single dose after 72 hrs of infection; type: functional; details: route subcutaneous
# [50] = test system: Plasmodium gallinaceum; experiment: Antimalarial activity against sporozoite-induced Plasmodium gallinaceum infected in chick assessed as change in cured at 240 mg/kg, sc single dose; type: functional; details: route subcutaneous
# [51] = test system: Plasmodium gallinaceum; experiment: Antimalarial activity against sporozoite-induced Plasmodium gallinaceum infected in chick assessed as change in cured at 120 mg/kg, sc single dose; type: functional; details: route subcutaneous
# [52] = test system: Plasmodium gallinaceum; experiment: Antimalarial activity against sporozoite-induced Plasmodium gallinaceum infected in chick assessed as change in cured at 60 mg/kg, sc single dose; type: functional; details: route subcutaneous
# [53] = test system: Plasmodium gallinaceum; experiment: Antimalarial activity against sporozoite-induced Plasmodium gallinaceum infected in chick assessed as change in cured at 30 mg/kg, sc single dose; type: functional; details: route subcutaneous
# [54] = test system: Plasmodium gallinaceum; experiment: Antimalarial activity against sporozoite-induced Plasmodium gallinaceum infected in chick assessed as change in cured at 15 mg/kg, sc single dose; type: functional; details: route subcutaneous
# [55] = test system: Plasmodium gallinaceum; experiment: Antimalarial activity against trophozoite-induced Plasmodium gallinaceum infected in chick assessed as mean survival time at 160 mg/kg, sc single dose (reference value: 4 days); type: functional; details: route subcutaneous
# [56] = test system: Plasmodium gallinaceum; experiment: Antimalarial activity against trophozoite-induced Plasmodium gallinaceum infected in chick assessed as cured at 160 mg/kg, sc single dose; type: functional, organism-based; design: dose 160 mg/kg
# [57] = test system: Gallus gallus; experiment: Toxicity in trophozoite-induced Plasmodium gallinaceum infected in chick assessed as death at 160 mg/kg, sc single dose measured within 48 hrs; type: organism-based; design: dose 160 mg/kg, route subcutaneous; details: chicken, in vivo
compound,measurement,setting,value
Nc1nc(N)c2cc(S(=O)(=O)c3ccc4ccccc4c3)ccc2n1,Activity,[1],2.4 mg/kg
same,fold change (FC),[2],0
same,Activity,[3],0.39 mg/kg
same,Activity,[4],0.025 mg/kg
same,CD90,[5],0.39 mg/kg
same,CD90,[6],0.098 mg/kg
same,CD90,[7],>6.25 mg/kg
same,CD90,[8],0.39 mg/kg
same,CD90,[9],6.25 mg/kg
same,CD90,[10],0.025 mg/kg
same,CD90,[11],0.00156 mg/kg
same,CD90,[12],0.39 mg/kg
same,CD90,[13],0.098 mg/kg
same,MIC,[14],> 25 µg/mL
same,MIC,[15],25 µg/mL
same,MIC,[16],> 25 µg/mL
same,MIC,[17],> 25 µg/mL
same,MIC,[18],> 25 µg/mL
same,MIC,[19],> 25 µg/mL
same,MIC,[20],> 25 µg/mL
same,IC50,[21],0.007 ng/mL
same,IC50,[22],0.00014 µg/mL
same,IC50,[23],0.00016 µg/mL
same,IC50,[24],2.4 nM
same,MCD,[25],20 mg/kg
same,MST,[26],15.6 days
same,MST,[27],12.1 days
same,MST,[28],10.9 days
same,MST,[29],20.4 days
same,MST,[30],15 days
same,MST,[31],13 days
same,MST,[32],11.8 days
same,MST,[33],8.8 days
same,MST,[34],6 days
same,Activity,[35],Active
same,Activity,[36],Active
same,Activity,[37],Active
same,Activity,[38],Active
same,Activity,[39],Active
same,Activity,[40],Active
same,Activity,[41],Toxic
same,Activity,[42],Toxic
same,Activity,[43],Toxic
same,Activity,[44],Toxic
same,Activity,[45],Toxic
same,Activity,[46],Toxic
Nc1nc(N)c2cc(S(=O)(=O)c3cc(Cl)cc(Cl)c3)ccc2n1,MIC,[14],1 µg/mL
same,MIC,[15],2.5 µg/mL
same,MIC,[16],10 µg/mL
same,MIC,[17],> 25 µg/mL
same,MIC,[18],> 25 µg/mL
same,MIC,[19],> 25 µg/mL
same,MIC,[20],> 25 µg/mL
same,MCD,[25],160 mg/kg
same,MST,[47],11.3 days
same,MST,[48],9.7 days
same,MST,[49],6.9 days
same,MST,[26],5.9 days
same,MST,[27],0.7 days
same,MST,[28],0.3 days
same,MST,[50],7 days
same,MST,[51],7 days
same,MST,[52],7 days
same,MST,[53],6.3 days
same,MST,[54],2.2 days
COc1ccc(S(=O)(=O)c2ccc3nc(N)nc(N)c3c2)cc1,MIC,[14],< 0.25 µg/mL
same,MIC,[15],2.5 µg/mL
same,MIC,[16],2.5 µg/mL
same,MIC,[17],> 25 µg/mL
same,MIC,[18],2.5 µg/mL
same,MIC,[19],2.5 µg/mL
same,MCD,[25],20 mg/kg
same,MST,[47],15.9 days
same,MST,[48],11.4 days
same,MST,[49],4.9 days
same,MST,[55],14.8 days
same,Activity,[56],Active
same,Activity,[57],Toxic
